Results on 51 molecules are retold here after patent US7049313B2, “ATM inhibitors” (Kudos Pharmaceuticals Ltd., priority 2002, dated 2006).

A value given as a limit tells only on which side of the number the result lay.

T1 sequence (Q13315 whole entry): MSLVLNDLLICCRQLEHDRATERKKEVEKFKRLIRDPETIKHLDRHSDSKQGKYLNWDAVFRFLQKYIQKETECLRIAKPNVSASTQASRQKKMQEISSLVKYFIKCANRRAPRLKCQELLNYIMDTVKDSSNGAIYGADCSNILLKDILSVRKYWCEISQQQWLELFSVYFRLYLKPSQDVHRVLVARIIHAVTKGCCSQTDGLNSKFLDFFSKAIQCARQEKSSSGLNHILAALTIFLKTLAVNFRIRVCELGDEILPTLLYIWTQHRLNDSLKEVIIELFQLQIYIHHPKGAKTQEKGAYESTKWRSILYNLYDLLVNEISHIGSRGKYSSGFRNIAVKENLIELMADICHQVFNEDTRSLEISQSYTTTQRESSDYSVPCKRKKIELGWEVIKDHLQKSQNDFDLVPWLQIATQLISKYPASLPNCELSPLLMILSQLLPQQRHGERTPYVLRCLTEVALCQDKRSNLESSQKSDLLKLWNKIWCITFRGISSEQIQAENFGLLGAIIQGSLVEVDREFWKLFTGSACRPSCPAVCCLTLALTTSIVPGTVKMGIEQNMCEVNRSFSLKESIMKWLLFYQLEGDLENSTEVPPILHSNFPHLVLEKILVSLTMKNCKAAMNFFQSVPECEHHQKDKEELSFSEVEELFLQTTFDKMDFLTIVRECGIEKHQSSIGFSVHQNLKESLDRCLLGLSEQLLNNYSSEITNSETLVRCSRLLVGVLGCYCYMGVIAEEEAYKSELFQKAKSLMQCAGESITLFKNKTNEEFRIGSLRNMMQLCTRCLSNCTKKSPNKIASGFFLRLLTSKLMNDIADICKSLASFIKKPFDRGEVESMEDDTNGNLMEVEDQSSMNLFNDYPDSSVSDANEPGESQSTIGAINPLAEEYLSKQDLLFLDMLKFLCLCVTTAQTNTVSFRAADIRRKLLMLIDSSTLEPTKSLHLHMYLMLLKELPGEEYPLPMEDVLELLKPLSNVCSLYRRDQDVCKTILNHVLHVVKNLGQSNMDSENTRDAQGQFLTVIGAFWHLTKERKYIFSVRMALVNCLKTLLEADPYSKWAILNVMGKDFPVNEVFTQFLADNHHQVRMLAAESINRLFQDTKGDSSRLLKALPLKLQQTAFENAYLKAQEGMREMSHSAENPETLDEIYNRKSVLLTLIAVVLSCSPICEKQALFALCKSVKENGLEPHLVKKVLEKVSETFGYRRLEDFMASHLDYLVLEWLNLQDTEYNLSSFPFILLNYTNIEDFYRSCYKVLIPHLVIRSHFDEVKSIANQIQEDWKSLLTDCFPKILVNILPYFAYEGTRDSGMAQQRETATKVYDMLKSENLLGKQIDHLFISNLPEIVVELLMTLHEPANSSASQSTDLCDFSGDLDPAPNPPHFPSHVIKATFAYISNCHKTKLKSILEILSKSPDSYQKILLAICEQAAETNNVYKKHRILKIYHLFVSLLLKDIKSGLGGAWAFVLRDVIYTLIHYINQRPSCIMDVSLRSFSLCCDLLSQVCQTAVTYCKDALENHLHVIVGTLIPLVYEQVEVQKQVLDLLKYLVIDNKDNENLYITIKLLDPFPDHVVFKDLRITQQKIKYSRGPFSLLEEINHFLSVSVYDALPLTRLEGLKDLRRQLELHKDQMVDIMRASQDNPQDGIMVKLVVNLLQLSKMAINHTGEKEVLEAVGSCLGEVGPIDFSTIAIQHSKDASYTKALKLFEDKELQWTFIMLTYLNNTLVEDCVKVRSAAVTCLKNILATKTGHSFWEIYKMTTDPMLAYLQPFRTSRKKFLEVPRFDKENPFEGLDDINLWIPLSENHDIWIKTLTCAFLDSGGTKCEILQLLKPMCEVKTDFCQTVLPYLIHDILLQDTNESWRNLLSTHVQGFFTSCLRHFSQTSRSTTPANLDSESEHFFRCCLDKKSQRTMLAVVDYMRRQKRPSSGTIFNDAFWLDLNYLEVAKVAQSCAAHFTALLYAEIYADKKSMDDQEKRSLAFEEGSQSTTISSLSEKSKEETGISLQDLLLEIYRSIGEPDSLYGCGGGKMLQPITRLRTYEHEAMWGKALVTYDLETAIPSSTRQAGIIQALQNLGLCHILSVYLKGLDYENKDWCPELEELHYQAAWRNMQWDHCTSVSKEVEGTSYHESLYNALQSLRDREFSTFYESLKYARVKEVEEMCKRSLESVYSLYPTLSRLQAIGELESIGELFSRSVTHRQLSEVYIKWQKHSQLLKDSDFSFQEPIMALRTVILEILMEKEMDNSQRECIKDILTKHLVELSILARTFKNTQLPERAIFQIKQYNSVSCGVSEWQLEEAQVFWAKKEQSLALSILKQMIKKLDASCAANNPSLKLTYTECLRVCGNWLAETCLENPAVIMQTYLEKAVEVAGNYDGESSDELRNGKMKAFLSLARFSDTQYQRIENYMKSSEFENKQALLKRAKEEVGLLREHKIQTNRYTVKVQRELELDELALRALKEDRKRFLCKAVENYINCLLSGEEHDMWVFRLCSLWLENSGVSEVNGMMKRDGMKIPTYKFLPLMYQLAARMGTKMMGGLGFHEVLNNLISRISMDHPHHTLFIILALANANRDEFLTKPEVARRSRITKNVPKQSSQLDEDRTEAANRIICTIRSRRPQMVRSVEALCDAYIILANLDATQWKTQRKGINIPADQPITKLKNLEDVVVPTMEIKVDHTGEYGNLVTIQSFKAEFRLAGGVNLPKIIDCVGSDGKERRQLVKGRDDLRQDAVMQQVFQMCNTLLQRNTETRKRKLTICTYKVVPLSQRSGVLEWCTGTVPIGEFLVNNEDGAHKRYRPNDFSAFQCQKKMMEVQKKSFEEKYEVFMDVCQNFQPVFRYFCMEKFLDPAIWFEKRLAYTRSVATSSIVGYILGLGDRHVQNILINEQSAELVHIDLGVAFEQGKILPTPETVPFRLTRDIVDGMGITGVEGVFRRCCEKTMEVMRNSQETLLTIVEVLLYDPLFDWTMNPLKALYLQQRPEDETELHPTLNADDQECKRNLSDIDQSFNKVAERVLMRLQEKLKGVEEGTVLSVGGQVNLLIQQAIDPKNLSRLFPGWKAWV

The assay addresses T1, ATM (Homo sapiens, UniProt Q13315).
T1 construct: ATM protein was immunoprecipitated from HeLa cell nuclear extract; endogenous in cells; host or cells: HeLa cell nuclear extract (immunoprecipitate)
As to the kind of experiment: In vitro ATM inhibition assay (phosphorylation of GSTp53N66 on serine 15). The assay is classed as biochemical. As for the experimental part:
In vitro ATM inhibition Assays
In order to assess the inhibitory action of the compounds against ATM in vitro, the following assay was used to determine IC50 values.
ATM protein was immunoprecipitated from HeLa cell nuclear extract using rabbit polyclonal anti-sera raised to the C-terminal ˜500 amino-acid residues of the human ATM protein. The immunoprecipitation was performed according to the methodology described by Banin, S. et al. (1998). 10 μl of immunoprecipitated ATM in Buffer C (50 mM Hepes, pH 7.4, 6 mM MgCl2, 150 mM NaCl, 0.1 mM sodium orthovanadate, 4 mM MnCl2, 0.1 mM dithiothreitol, 10% glycerol) was added to 32.5 μl of buffer C containing 1 μg of the ATM substrate GSTp53N66 in a V-bottomed 96 well polypropylene plate. The GSTp53N66 substrate is the amino terminal 66 amino acid residues of human wild type p53 fused to glutathione S-transferase. ATM phosphorylates p53 on the residue serine 15 (Banin, S. et al. (1998)). Varying concentrations of inhibitor were then added. […] After 10 minutes of incubation at 37° C., the reactions were initiated by the addition of 5 μl of 500 μM Na-ATP. After 1 hour with shaking at 37° C., 150 μl of phosphate buffered saline (PBS) was added to the reaction and the plate centrifuged at 1500 rpm for 10 minutes. 5 μl of the reaction was then transferred to a 96 well opaque white plate containing 45 μl of PBS to allow the GSTp53N66 substrate to bind to the plate wells. The plate was covered and incubated at room temperature for 1 hour with shaking before discarding the contents. The plate wells were washed twice by the addition of PBS prior to the addition of 3% (w/v) bovine serum albumin (BSA) in PBS. The plate was incubated at room temperature for 1 hour with shaking before discarding the contents and washing twice with PBS. To the wells, 50 μl of a 1:10,000 dilution of primary phosphoserine-15 antibody (Cell Signaling Technology, #9284L) in 3% BSA/PBS was added to detect the phosphorylation event on the serine 15 residue of p53 elicited by the ATM kinase. After 1 hour of incubation at room temperature with shaking, the wells were washed four times with PBS prior to the addition of an anti-rabbit HRP conjugated secondary antibody (Pierce, 31462) with shaking for 1 hour at room temperature. The wells were then washed four times with PBS before the addition of chemiluminescence reagent (NEN Renaissance, NEL105). The plate was then shaken briefly, covered with a transparent plate seal and transferred to a TopCount NXT for chemiluminescent counting. Counts per second, following a one second counting time, were recorded for each reaction.
The enzyme activity for each compound is then calculated using the following equation: […]
`O=c1cc(-c2cccc3c2Oc2ccccc2S3)oc(N2CCOCC2)c1` [Compound 5, 2-Phenoxathiin-4-yl-6-morpholin-4-yl-pyran-4-one] yielded an IC50 of less than 200 nM.

Regarding `O=c1cc(-c2ccccc2Sc2ccccc2)oc(N2CCOCC2)c1` [Compound 9, 2-(2-Phenylsulfanyl-phenyl)-6-morpholin-4-yl-pyran-4-one], the IC50 was less than 20000 nM.

`O=c1cc(-c2ccc(F)c3c(=O)c4ccccc4sc23)oc(N2CCOCC2)c1` [Compound 13, 2-(1-Fluoro-9-oxo-9H-thioxanthen-4-yl)-6-morpholin-4-yl-pyran-4-one] had an IC50 of less than 20000 nM.

In turn, `O=c1cc(-c2ccc(F)c3c2Sc2ccccc2C3)oc(N2CCOCC2)c1` [Compound 17, 2-(1-Fluoro-9H-thioxanthen-4-yl)-6-morpholin-4-yl-pyran-4-one] yielded an IC50 of less than 200 nM.

On to `S=c1cc(-c2cccc3c2Sc2ccccc2S3)oc(N2CCOCC2)c1` [Compound 18, 2-Thianthren-1-yl-6-morpholin-4-yl-pyran-4-thione], for which the IC50 is less than 200 nM.

On to `CC(C)(C)OC(=O)Nc1ccc2c(c1)Cc1cccc(-c3cc(=O)cc(N4CCOCC4)o3)c1S2` [Compound 19, [5-(6-Morpholin-4-yl-4-oxo-4H-pyran-2-yl)-9H-thioxanthen-2-yl]-carbamic acid tert-butyl ester], for which the IC50 is less than 200 nM.

Consider `Nc1ccc2c(c1)Cc1cccc(-c3cc(=O)cc(N4CCOCC4)o3)c1S2` [Compound 20, 2-(7-Amino-9H-thioxanthen-4-yl)-6-morpholin-4-yl-pyran-4-one], for which the IC50 is less than 200 nM.

As for `COCC(=O)Nc1ccc2c(c1)Cc1cccc(-c3cc(=O)cc(N4CCOCC4)o3)c1S2` [Compound 22], the IC50 was less than 200 nM.

For the molecule `COC(=O)CC(=O)Nc1ccc2c(c1)Cc1cccc(-c3cc(=O)cc(N4CCOCC4)o3)c1S2` [Compound 23], the half-maximal inhibitory concentration (IC50) is less than 200 nM.

Take `COC(=O)CCCC(=O)Nc1ccc2c(c1)Cc1cccc(-c3cc(=O)cc(N4CCOCC4)o3)c1S2` [Compound 25]: the IC50 is less than 200 nM.

In turn, `O=C(Nc1ccc2c(c1)Cc1cccc(-c3cc(=O)cc(N4CCOCC4)o3)c1S2)c1cccnc1` [Compound 26] showed an IC50 of less than 200 nM.

Regarding `O=C(Nc1ccc2c(c1)Cc1cccc(-c3cc(=O)cc(N4CCOCC4)o3)c1S2)c1ccco1` [Compound 27], the half-inhibitory concentration (IC50) is less than 200 nM.

For `O=C(Nc1ccc2c(c1)Cc1cccc(-c3cc(=O)cc(N4CCOCC4)o3)c1S2)c1ccncc1` [Compound 28], the IC50 is less than 200 nM.

In turn, `COc1ccccc1C(=O)Nc1ccc2c(c1)Cc1cccc(-c3cc(=O)cc(N4CCOCC4)o3)c1S2` [Compound 29] displayed an IC50 of less than 200 nM.

Regarding `O=C(Nc1ccc2c(c1)Cc1cccc(-c3cc(=O)cc(N4CCOCC4)o3)c1S2)c1cccs1` [Compound 30], the IC50 is less than 200 nM.

Turning to `O=C(Cc1cccs1)Nc1ccc2c(c1)Cc1cccc(-c3cc(=O)cc(N4CCOCC4)o3)c1S2` [Compound 31], the 50% inhibitory concentration (IC50) is less than 200 nM.

The molecule `O=C(Nc1ccc2c(c1)Cc1cccc(-c3cc(=O)cc(N4CCOCC4)o3)c1S2)C1CCC1` [Compound 32] displayed an IC50 of less than 200 nM.

As to `Cc1noc(C)c1C(=O)Nc1ccc2c(c1)Cc1cccc(-c3cc(=O)cc(N4CCOCC4)o3)c1S2` [Compound 33], the IC50 was less than 200 nM.

Molecule `COC(=O)C(=O)Nc1ccc2c(c1)Cc1cccc(-c3cc(=O)cc(N4CCOCC4)o3)c1S2` [Compound 34] registered an IC50 of less than 200 nM.

For the molecule `Cn1nc(O)cc1C(=O)Nc1ccc2c(c1)Cc1cccc(-c3cc(=O)cc(N4CCOCC4)o3)c1S2` [Compound 35], the IC50 is less than 200 nM.

On to `CC(=O)N1CCC(C(=O)Nc2ccc3c(c2)Cc2cccc(-c4cc(=O)cc(N5CCOCC5)o4)c2S3)CC1` [Compound 36], for which the IC50 was less than 200 nM.

`CC(=O)Oc1ccccc1C(=O)Nc1ccc2c(c1)Cc1cccc(-c3cc(=O)cc(N4CCOCC4)o3)c1S2` [Compound 37] had an IC50 of less than 200 nM.

For `COc1cc(C(=O)Nc2ccc3c(c2)Cc2cccc(-c4cc(=O)cc(N5CCOCC5)o4)c2S3)cc(OC)c1OC` [Compound 38], the IC50 is less than 200 nM.

`COC(=O)CCC(=O)Nc1ccc2c(c1)Cc1cccc(-c3cc(=O)cc(N4CCOCC4)o3)c1S2` [Compound 39] returned an IC50 of less than 200 nM.

For the molecule `CC(=O)OCC(=O)Nc1ccc2c(c1)Cc1cccc(-c3cc(=O)cc(N4CCOCC4)o3)c1S2` [Compound 40], the IC50 was less than 200 nM.

As to `CC(=O)OC(C(=O)Nc1ccc2c(c1)Cc1cccc(-c3cc(=O)cc(N4CCOCC4)o3)c1S2)c1ccccc1` (stereo not drawn) [Compound 41], the IC50 is less than 200 nM.

For `Cc1cc(C(=O)Nc2ccc3c(c2)Cc2cccc(-c4cc(=O)cc(N5CCOCC5)o4)c2S3)c(C)o1` [Compound 42], the IC50 was less than 200 nM.

Regarding `O=C(Nc1ccc2c(c1)Cc1cccc(-c3cc(=O)cc(N4CCOCC4)o3)c1S2)c1ccc2c(c1)CCO2` [Compound 43], the IC50 is less than 200 nM.

Consider `O=C(Nc1ccc2c(c1)Cc1cccc(-c3cc(=O)cc(N4CCOCC4)o3)c1S2)c1cc(F)cc2c1OCOC2` [Compound 44], for which the IC50 was less than 200 nM.

In the case of `Cc1cc(C(=O)Nc2ccc3c(c2)Cc2cccc(-c4cc(=O)cc(N5CCOCC5)o4)c2S3)no1` [Compound 45], the IC50 was less than 200 nM.

In the case of `O=C(Nc1ccc2c(c1)Cc1cccc(-c3cc(=O)cc(N4CCOCC4)o3)c1S2)c1csc(-c2cccs2)n1` [Compound 46], the IC50 was less than 200 nM.

For the molecule `O=C(Nc1ccc2c(c1)Cc1cccc(-c3cc(=O)cc(N4CCOCC4)o3)c1S2)c1ccno1` [Compound 47], the concentration for half-maximal inhibition (IC50) is less than 200 nM.

With `O=C(O)CCC(=O)Nc1ccc2c(c1)Cc1cccc(-c3cc(=O)cc(N4CCOCC4)o3)c1S2` [Compound 48], the IC50 was less than 200 nM.

Consider `O=C(O)C1CC1C(=O)Nc1ccc2c(c1)Cc1cccc(-c3cc(=O)cc(N4CCOCC4)o3)c1S2` (stereo not drawn) [Compound 49], for which the IC50 is less than 200 nM.

`O=C(O)C(F)(F)C(F)(F)C(=O)Nc1ccc2c(c1)Cc1cccc(-c3cc(=O)cc(N4CCOCC4)o3)c1S2` [Compound 50] returned an IC50 of less than 200 nM.

The molecule `O=C(CN1CCCCC1)Nc1ccc2c(c1)Cc1cccc(-c3cc(=O)cc(N4CCOCC4)o3)c1S2` [Compound 51] gave an IC50 of less than 200 nM.

Regarding `O=C(CN1CCNCC1)Nc1ccc2c(c1)Cc1cccc(-c3cc(=O)cc(N4CCOCC4)o3)c1S2` [Compound 52], the IC50 was less than 200 nM.

As to `CN1CCN(CC(=O)Nc2ccc3c(c2)Cc2cccc(-c4cc(=O)cc(N5CCOCC5)o4)c2S3)CC1` [Compound 53], the IC50 is less than 200 nM.

Take `O=C(CN(CCO)CCO)Nc1ccc2c(c1)Cc1cccc(-c3cc(=O)cc(N4CCOCC4)o3)c1S2` [Compound 54]: the IC50 is less than 200 nM.

Turning to `COCCN(CCOC)CC(=O)Nc1ccc2c(c1)Cc1cccc(-c3cc(=O)cc(N4CCOCC4)o3)c1S2` [Compound 55], the IC50 is less than 200 nM.

In turn, `O=C(CNCCO)Nc1ccc2c(c1)Cc1cccc(-c3cc(=O)cc(N4CCOCC4)o3)c1S2` [Compound 56] returned an IC50 of less than 200 nM.

The molecule `NCCNCC(=O)Nc1ccc2c(c1)Cc1cccc(-c3cc(=O)cc(N4CCOCC4)o3)c1S2` [Compound 57] had a 50% inhibitory concentration (IC50) of less than 200 nM.

`CN1CCCN(CC(=O)Nc2ccc3c(c2)Cc2cccc(-c4cc(=O)cc(N5CCOCC5)o4)c2S3)CC1` [Compound 59] showed an IC50 of less than 200 nM.

Consider `O=C(CN1CCCNCC1)Nc1ccc2c(c1)Cc1cccc(-c3cc(=O)cc(N4CCOCC4)o3)c1S2` [Compound 60], for which the IC50 was less than 200 nM.

In turn, `O=C(CN1CCCCCC1)Nc1ccc2c(c1)Cc1cccc(-c3cc(=O)cc(N4CCOCC4)o3)c1S2` [Compound 61] displayed a half-inhibitory concentration (IC50) of less than 200 nM.

The molecule `O=C(CNCCCN1CCOCC1)Nc1ccc2c(c1)Cc1cccc(-c3cc(=O)cc(N4CCOCC4)o3)c1S2` [Compound 62] came in with an IC50 of less than 200 nM.

The molecule `COc1ccc(CNCC(=O)Nc2ccc3c(c2)Cc2cccc(-c4cc(=O)cc(N5CCOCC5)o4)c2S3)cc1` [Compound 63] came in with an IC50 of less than 200 nM.

Consider `O=C(CSc1ncn[nH]1)Nc1ccc2c(c1)Cc1cccc(-c3cc(=O)cc(N4CCOCC4)o3)c1S2` [Compound 64], for which the 50% inhibitory concentration (IC50) was less than 200 nM.

Regarding `NCC(=O)Nc1ccc2c(c1)Cc1cccc(-c3cc(=O)cc(N4CCOCC4)o3)c1S2` [Compound 66], the IC50 is less than 200 nM.

Consider `O=C(CNCCN1CCOCC1)Nc1ccc2c(c1)Cc1cccc(-c3cc(=O)cc(N4CCOCC4)o3)c1S2` [Compound 67], for which the IC50 is less than 200 nM.

In turn, `O=C(CNCC1CCCO1)Nc1ccc2c(c1)Cc1cccc(-c3cc(=O)cc(N4CCOCC4)o3)c1S2` (stereo not drawn) [Compound 68] came in with an IC50 of less than 200 nM.
